Experimental data: PubChem BioAssay (NCI)
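Test compounds were applied to cells in 96-well plates for 48 hours at 5 doses. TGI marks complete inhibition of growth.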

How the values were obtained:
Experiment in all cases: NCI tumour cell line growth inhibition, 48 h
SF-268 CNS = system: SF-268 CNS
SF-295 CNS = system: SF-295 CNS
UACC-257 melanoma = system: UACC-257 melanoma
MDA-MB-231 breast = system: MDA-MB-231 breast
SN12C renal = system: SN12C renal
NCI/ADR-RES ovarian = system: NCI/ADR-RES ovarian
SK-MEL-28 melanoma = system: SK-MEL-28 melanoma
DU-145 prostate = system: DU-145 prostate
HCC-2998 colon = system: HCC-2998 colon
KM12 colon = system: KM12 colon
NCI-H522 lung = system: NCI-H522 lung
LOX IMVI melanoma = system: LOX IMVI melanoma
MDA-N = system: MDA-N
TK-10 renal = system: TK-10 renal
SK-MEL-2 melanoma = system: SK-MEL-2 melanoma
HT29 colon = system: HT29 colon
MDA-MB-435 = system: MDA-MB-435
UACC-62 melanoma = system: UACC-62 melanoma
MOLT-4 leukemia = system: MOLT-4 leukemia
SR leukemia = system: SR leukemia
SNB-19 CNS = system: SNB-19 CNS
SK-OV-3 ovarian = system: SK-OV-3 ovarian
A549 NSCLC = system: A549 NSCLC
MALME-3M melanoma = system: MALME-3M melanoma
HCT-15 colon = system: HCT-15 colon
NCI-H460 lung = system: NCI-H460 lung
OVCAR-4 ovarian = system: OVCAR-4 ovarian
NCI-H226 lung = system: NCI-H226 lung
IGROV1 ovarian = system: IGROV1 ovarian
T-47D breast = system: T-47D breast
HCT-116 colon = system: HCT-116 colon
HS 578T breast = system: HS 578T breast
OVCAR-3 ovarian = system: OVCAR-3 ovarian
M14 melanoma = system: M14 melanoma
UO-31 renal = system: UO-31 renal
SK-MEL-5 melanoma = system: SK-MEL-5 melanoma
CAKI-1 renal = system: CAKI-1 renal
K-562 leukemia = system: K-562 leukemia
U251 CNS = system: U251 CNS
COLO 205 colon = system: COLO 205 colon
ACHN renal = system: ACHN renal
OVCAR-8 ovarian = system: OVCAR-8 ovarian
SF-539 CNS = system: SF-539 CNS
CCRF-CEM leukemia = system: CCRF-CEM leukemia
A498 renal = system: A498 renal
HOP-62 NSCLC = system: HOP-62 NSCLC
RXF 393 renal = system: RXF 393 renal
MCF7 breast = system: MCF7 breast
BT-549 breast = system: BT-549 breast
PC-3 prostate = system: PC-3 prostate
OVCAR-5 ovarian = system: OVCAR-5 ovarian
RPMI-8226 leukemia = system: RPMI-8226 leukemia
HL-60(TB) leukemia = system: HL-60(TB) leukemia
SNB-75 CNS = system: SNB-75 CNS
SW-620 colon = system: SW-620 colon
786-0 renal = system: 786-0 renal
NCI-H23 lung = system: NCI-H23 lung
HOP-92 NSCLC = system: HOP-92 NSCLC
EKVX NSCLC = system: EKVX NSCLC

Compound: S=c1[nH]nc(C23CC4CC(CC(C4)C2)C3)n1-c1ccc(Cl)cc1
- TGI (SF-268 CNS): 50.1 µM
- TGI (SF-295 CNS): 58.6 µM
- TGI (UACC-257 melanoma): 71.4 µM
- TGI (MDA-MB-231 breast): 56.4 µM
- TGI (SN12C renal): 39.9 µM
- TGI (NCI/ADR-RES ovarian): 59.8 µM
- TGI (SK-MEL-28 melanoma): 33.4 µM
- TGI (DU-145 prostate): 95.9 µM
- TGI (HCC-2998 colon): 32.9 µM
- TGI (KM12 colon): 52.9 µM
- TGI (NCI-H522 lung): 57.9 µM
- TGI (LOX IMVI melanoma): 17 µM
- TGI (MDA-N): 41.1 µM
- TGI (TK-10 renal): 72.4 µM
- TGI (SK-MEL-2 melanoma): 27.9 µM
- TGI (HT29 colon): 36.8 µM
- TGI (MDA-MB-435): 55.9 µM
- TGI (UACC-62 melanoma): 25.3 µM
- TGI (MOLT-4 leukemia): 49.4 µM
- TGI (SR leukemia): 16.4 µM
- TGI (SNB-19 CNS): > 100 µM
- TGI (SK-OV-3 ovarian): 73.9 µM
- TGI (A549 NSCLC): 72.2 µM
- TGI (MALME-3M melanoma): 63.3 µM
- TGI (HCT-15 colon): 23.3 µM
- TGI (NCI-H460 lung): 56 µM
- TGI (OVCAR-4 ovarian): > 100 µM
- TGI (NCI-H226 lung): 55.8 µM
- TGI (IGROV1 ovarian): 42.9 µM
- TGI (T-47D breast): 52 µM
- TGI (HCT-116 colon): 23.8 µM
- TGI (HS 578T breast): 52.8 µM
- TGI (OVCAR-3 ovarian): 30.4 µM
- TGI (M14 melanoma): 41.4 µM
- TGI (UO-31 renal): 44.7 µM
- TGI (SK-MEL-5 melanoma): 14.4 µM
- TGI (CAKI-1 renal): 11.5 µM
- TGI (K-562 leukemia): > 100 µM
- TGI (U251 CNS): 31.7 µM
- TGI (COLO 205 colon): 46 µM
- TGI (ACHN renal): 73.5 µM
- TGI (OVCAR-8 ovarian): > 100 µM
- TGI (SF-539 CNS): 38 µM
- TGI (CCRF-CEM leukemia): 19.8 µM
- TGI (A498 renal): 42.6 µM
- TGI (HOP-62 NSCLC): 32.7 µM
- TGI (RXF 393 renal): 38.1 µM
- TGI (MCF7 breast): 45.7 µM
- TGI (BT-549 breast): 29.9 µM
- TGI (PC-3 prostate): 93.7 µM
- TGI (OVCAR-5 ovarian): > 100 µM
- TGI (RPMI-8226 leukemia): 66.9 µM
- TGI (HL-60(TB) leukemia): 8.41 µM
- TGI (SNB-75 CNS): 72.1 µM
- TGI (SW-620 colon): > 100 µM
- TGI (786-0 renal): > 100 µM
- TGI (NCI-H23 lung): > 100 µM

Compound: C[C@@]1(O)C2C3CC4C5C3C1[C@](O)(C42)[C@H]5Br (some centres not stated)
- TGI (SF-268 CNS): > 100 µM
- TGI (SF-295 CNS): > 100 µM
- TGI (UACC-257 melanoma): > 100 µM
- TGI (MDA-MB-231 breast): > 100 µM
- TGI (SN12C renal): > 100 µM
- TGI (NCI/ADR-RES ovarian): > 100 µM
- TGI (SK-MEL-28 melanoma): > 100 µM
- TGI (DU-145 prostate): > 100 µM
- TGI (HCC-2998 colon): > 100 µM
- TGI (KM12 colon): > 100 µM
- TGI (NCI-H522 lung): > 100 µM
- TGI (LOX IMVI melanoma): > 100 µM
- TGI (MDA-N): > 100 µM
- TGI (TK-10 renal): > 100 µM
- TGI (SK-MEL-2 melanoma): > 100 µM
- TGI (HT29 colon): > 100 µM
- TGI (MDA-MB-435): > 100 µM
- TGI (UACC-62 melanoma): > 100 µM
- TGI (HOP-92 NSCLC): > 100 µM
- TGI (MOLT-4 leukemia): > 100 µM
- TGI (SR leukemia): > 100 µM
- TGI (SNB-19 CNS): > 100 µM
- TGI (A549 NSCLC): > 100 µM
- TGI (HCT-15 colon): > 100 µM
- TGI (NCI-H460 lung): > 100 µM
- TGI (OVCAR-4 ovarian): > 100 µM
- TGI (IGROV1 ovarian): > 100 µM
- TGI (T-47D breast): > 100 µM
- TGI (HCT-116 colon): > 100 µM
- TGI (HS 578T breast): > 100 µM
- TGI (OVCAR-3 ovarian): > 100 µM
- TGI (M14 melanoma): > 100 µM
- TGI (UO-31 renal): > 100 µM
- TGI (SK-MEL-5 melanoma): > 100 µM
- TGI (CAKI-1 renal): > 100 µM
- TGI (K-562 leukemia): > 100 µM
- TGI (U251 CNS): > 100 µM
- TGI (COLO 205 colon): > 100 µM
- TGI (ACHN renal): > 100 µM
- TGI (OVCAR-8 ovarian): > 100 µM
- TGI (SF-539 CNS): > 100 µM
- TGI (CCRF-CEM leukemia): > 100 µM
- TGI (A498 renal): > 100 µM
- TGI (HOP-62 NSCLC): > 100 µM
- TGI (RXF 393 renal): > 100 µM
- TGI (MCF7 breast): > 100 µM
- TGI (BT-549 breast): > 100 µM
- TGI (PC-3 prostate): > 100 µM
- TGI (OVCAR-5 ovarian): > 100 µM
- TGI (HL-60(TB) leukemia): > 100 µM
- TGI (EKVX NSCLC): > 100 µM
- TGI (SW-620 colon): > 100 µM
- TGI (786-0 renal): > 100 µM
- TGI (NCI-H23 lung): > 100 µM

Compound: c1ccc([P+](c2ccccc2)(c2ccccc2)c2ccc([P+](c3ccccc3)(c3ccccc3)c3ccccc3)c3ccccc23)cc1
- TGI (SF-268 CNS): > 100 µM
- TGI (SF-295 CNS): > 100 µM
- TGI (UACC-257 melanoma): > 100 µM
- TGI (MDA-MB-231 breast): > 100 µM
- TGI (SN12C renal): > 100 µM
- TGI (NCI/ADR-RES ovarian): > 100 µM
- TGI (SK-MEL-28 melanoma): > 100 µM
- TGI (DU-145 prostate): > 100 µM
- TGI (HCC-2998 colon): > 100 µM
- TGI (KM12 colon): > 100 µM
- TGI (NCI-H522 lung): > 100 µM
- TGI (LOX IMVI melanoma): > 100 µM
- TGI (MDA-N): > 100 µM
- TGI (TK-10 renal): > 100 µM
- TGI (SK-MEL-2 melanoma): > 100 µM
- TGI (HT29 colon): > 100 µM
- TGI (MDA-MB-435): > 100 µM
- TGI (UACC-62 melanoma): > 100 µM
- TGI (MOLT-4 leukemia): > 100 µM
- TGI (SR leukemia): > 100 µM
- TGI (SNB-19 CNS): > 100 µM
- TGI (SK-OV-3 ovarian): > 100 µM
- TGI (A549 NSCLC): > 100 µM
- TGI (MALME-3M melanoma): > 100 µM
- TGI (HCT-15 colon): > 100 µM
- TGI (NCI-H460 lung): > 100 µM
- TGI (NCI-H226 lung): > 100 µM
- TGI (IGROV1 ovarian): > 100 µM
- TGI (T-47D breast): > 100 µM
- TGI (HCT-116 colon): > 100 µM
- TGI (HS 578T breast): > 100 µM
- TGI (OVCAR-3 ovarian): > 100 µM
- TGI (M14 melanoma): > 100 µM
- TGI (UO-31 renal): > 100 µM
- TGI (SK-MEL-5 melanoma): > 100 µM
- TGI (CAKI-1 renal): > 100 µM
- TGI (K-562 leukemia): > 100 µM
- TGI (U251 CNS): > 100 µM
- TGI (COLO 205 colon): > 100 µM
- TGI (ACHN renal): > 100 µM
- TGI (OVCAR-8 ovarian): > 100 µM
- TGI (SF-539 CNS): > 100 µM
- TGI (CCRF-CEM leukemia): > 100 µM
- TGI (A498 renal): > 100 µM
- TGI (HOP-62 NSCLC): > 100 µM
- TGI (RXF 393 renal): > 100 µM
- TGI (MCF7 breast): > 100 µM
- TGI (BT-549 breast): > 100 µM
- TGI (PC-3 prostate): > 100 µM
- TGI (OVCAR-5 ovarian): > 100 µM
- TGI (RPMI-8226 leukemia): > 100 µM
- TGI (HL-60(TB) leukemia): > 100 µM
- TGI (SNB-75 CNS): > 100 µM
- TGI (SW-620 colon): > 100 µM
- TGI (786-0 renal): > 100 µM
- TGI (NCI-H23 lung): > 100 µM
